Source: patent publication US20130336889A1, “NANOPARTICLE AND METHOD FOR DETECTING OR TREATING A TUMOR USING THE SAME” (NATIONAL TAIWAN UNIVERSITY, priority 2012, published 2013)

How the values were obtained:
[1] = Absorbance spectra (UV-vis); format: physicochemical
[2] = tested on: HCT-116 cells; test: Cytotoxicity by MTT assay without or with NIR irradiation; format: cell-based, human; conditions: 2.5 μg/mL
Procedure: Cell viability was determined with the MTT assay and a scanning multiwell ELISA reader (Microplate Autoreader EL311, Bio-Tek Instruments Inc., Winooski, Vt., USA). The fraction of live cells was calculated by dividing the mean optical density obtained from treated cells by the mean optical density from untreated control cells.

maximum wavelength (λmax) of absorption ([1]; IR-780 dye diluted in THF, IR-780 micelles in PBS): about 795 nm
λmax of absorption peak ([1]; aggregated in aqueous buffer, broad and blue-shifted): 775 nm
SMILES: CCCN1C(=CC=C2CCCC(C=CC3=[N+](CCC)c4ccccc4C3(C)C)=C2Cl)C(C)(C)c2ccccc21.[I-] [free IR-780 iodide, IR-780 iodide]
excess cells killed ([2]; 808 nm 0.6 W/cm^2 NIR irradiation 10 min): 0.3%
excess cells killed ([2]; 808 nm 0.6 W/cm^2 NIR irradiation 20 min): 26.8%
